Data reported in the supplement of paper PMC11061612.

How the values were obtained:
Assay in all cases: Bliss excess, mean over the matrix (fraction); higher = more synergy
[1] = system: DMS-53 (Small Cell Lung Carcinoma)
Method in brief: (§1)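 Cell lines in DMEM/F12 or RPMI with 10% FBS were plated in 1536-well plates, held 24 hours at 37°C, 5% CO2, then given two-drug dose matrices for 72 hours (DMSO typically 0.2%). Viability was read by CellTiter-Glo 2.0 luminescence and scaled as inhibition from 0 (vehicle wells) to 1 (blank wells). Combination Emax is the second-highest inhibition in the matrix; Bliss excess is observed combination effect minus expected EA + EB − EA·EB, EA and EB being single-agent effects.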

[2] = system: LS-411N (Colorectal Carcinoma)
Method in brief: as §1

[3] = system: GCT (Other Solid Carcinomas)
Method in brief: as §1

[4] = system: MDA-MB-436 (Breast Carcinoma)
Method in brief: as §1

[5] = system: NCI-H441 (Lung Adenocarcinoma)
Method in brief: as §1

[6] = system: CAL-27 (Oral Cavity Carcinoma)
Method in brief: as §1

[7] = system: Jurkat (T-Lymphoblastic Leukemia)
Method in brief: as §1

[8] = system: A2780 (Ovarian Carcinoma)
Method in brief: as §1

[9] = system: EPLC-272H (Other Solid Carcinomas)
Method in brief: as §1

[10] = system: AU565 (Breast Carcinoma)
Method in brief: as §1

[11] = system: CGTH-W-1 (Thyroid Gland Carcinoma)
Method in brief: as §1

[12] = system: CA46 (Burkitt's Lymphoma)
Method in brief: as §1

[13] = system: NCI-H1651 (Lung Adenocarcinoma)
Method in brief: as §1

[14] = system: HCC1428 (Breast Carcinoma)
Method in brief: as §1

[15] = system: RH-41 (Rhabdomyosarcoma)
Method in brief: as §1

[16] = system: A253 (Head and Neck Carcinoma)
Method in brief: as §1

[17] = system: 769-P (Kidney Carcinoma)
Method in brief: as §1

[18] = system: huH-1 (Hepatocellular Carcinoma)
Method in brief: as §1

[19] = system: EW-16 (Ewing's Sarcoma)
Method in brief: as §1

[20] = system: JIMT-1 (Breast Carcinoma)
Method in brief: as §1

| Compound | Bliss excess [1] | Bliss excess [2] | Bliss excess [3] | Bliss excess [4] | Bliss excess [5] | Bliss excess [6] | Bliss excess [7] | Bliss excess [8] | Bliss excess [9] | Bliss excess [10] | Bliss excess [11] | Bliss excess [12] | Bliss excess [13] | Bliss excess [14] | Bliss excess [15] | Bliss excess [16] | Bliss excess [17] | Bliss excess [18] | Bliss excess [19] | Bliss excess [20] |
| --- | --- | --- | --- | --- | --- | --- | --- | --- | --- | --- | --- | --- | --- | --- | --- | --- | --- | --- | --- | --- |
| Cc1c2c(nn1C)CSCc1cc(n(C)n1)CSc1cc(c3ccccc3c1)OCCCc1c(C(=O)O)n(C)c3c-2c(Cl)ccc13 [AZD5991] + C[C@@H]1COCCN1C2=NC(=NC(=C2)C3(CC3)[S@](=N)(=O)C)C4=C5C=CNC5=NC=C4 [AZD6738] (first compound max 1 µM, 7x7, partner max 10 µM) | 0.0165 | 0.0069 | 0.06 | -0.0031 | 0.0073 | 0.0358 | -0.0178 | -0.0032 | 0.0151 | 0.0006 | 0.0117 | -0.0252 | 0.0192 | -0.0045 | 0.014 | 0.0364 | -0.0333 | -0.0302 | -0.0304 | 0.0789 |
| COc1cccc(OCCCN)c1-c1cc(Nc2cnc(C#N)cn2)n[nH]1 [Prexasertib] + CN(C)CCCOc1ccc(-c2ccc3ncc4c(c3c2)n(C2CCOCC2)c(=O)n4C)cn1 [AZD0156] (first compound max 1 µM, 7x7, partner max 1 µM) | -0.0142 | -0.0336 | -0.0084 | -0.0428 | -0.0994 | -0.0014 | -0.0264 | 0.0127 | -0.0602 | -0.073 | -0.0614 | 0.0713 | -0.107 | -0.0703 | -0.0209 | -0.0379 | 0.0193 | -0.0422 | 0.023 | 0.0375 |
| COc1cccc(OCCCN)c1-c1cc(Nc2cnc(C#N)cn2)n[nH]1 [Prexasertib] + Cc1cc2ncnn2cc1Nc1ncc2c(n1)n(C1CCOCC1)c(=O)n2C [AZD7648] (first compound max 1 µM, 7x7, partner max 10 µM) | -0.0344 | -0.0082 | 0.0365 | -0.0552 | 0.0071 | 0.0291 | -0.0008 | 0.0097 | -0.0481 | 0.0086 | -0.0455 | -0.0182 | -0.132 | -0.0714 | -0.0453 | -0.0228 | -0.038 | -0.0226 | 0.0156 | -0.0205 |
| COc1nnc2ccc(N3CCC(c4ccc(OCCN5CCN(C)C(=O)[C@H]5C)cc4)CC3)nn12 [AZD5153] + Cc1c2c(nn1C)CSCc1cc(n(C)n1)CSc1cc(c3ccccc3c1)OCCCc1c(C(=O)O)n(C)c3c-2c(Cl)ccc13 [AZD5991] (first compound max 1 µM, 7x7, partner max 1 µM) | 0.007 | 0.0068 | -0.0425 | -0.0167 | -0.0179 | -0.056 | 0.0006 | -0.0324 | -0.026 | -0.0342 | -0.025 | -0.0502 | -0.0273 | -0.0587 | 0.012 | 0.0071 | -0.0716 | 0.0196 | -0.0412 | 0.0155 |
| COc1nnc2ccc(N3CCC(c4ccc(OCCN5CCN(C)C(=O)[C@H]5C)cc4)CC3)nn12 [AZD5153] + C[C@@H]1COCCN1C2=NC(=NC(=C2)C3(CC3)[S@](=N)(=O)C)C4=C5C=CNC5=NC=C4 [AZD6738] (first compound max 1 µM, 7x7, partner max 10 µM) | 0.037 | 0.0754 | 0.029 | -0.0104 | 0.0192 | 0.0095 | 0.0601 | -0.0058 | -0.0629 | 0.009 | 0.0604 | -0.0051 | 0.0178 | 0.0209 | 0.0514 | 0.0315 | 0.0196 | 0.031 | 0.0667 | 0.0465 |
| NC1(C(=O)N[C@@H](CCO)c2ccc(Cl)cc2)CCN(c2ncnc3[nH]ccc23)CC1 [Capivasertib] + CC(=O)c1c(C)c2cnc(Nc3ccc(N4CCNCC4)cn3)nc2n(C2CCCC2)c1=O [Palbociclib] (first compound max 10 µM, 7x7, partner max 10 µM) | 0.0477 | -0.0119 | -0.0569 | -0.0267 | -0.0304 | -0.0242 | 0.0314 | -0.0266 | -0.0065 | 0.0521 | 0.0111 | 0.0033 | -0.0393 | -0.0201 | -0.047 | -0.0709 | -0.0257 | -0.0462 | 0.0029 | -0.0115 |
| CC(=O)c1c(C)c2cnc(Nc3ccc(N4CCNCC4)cn3)nc2n(C2CCCC2)c1=O [Palbociclib] + CC1(C)CCC(CN2CCN(c3ccc(C(=O)NS(=O)(=O)c4ccc(NCC5CCOCC5)c([N+](=O)[O-])c4)c(Oc4cnc5[nH]ccc5c4)c3)CC2)=C(c2ccc(Cl)cc2)C1 [Venetoclax] (first compound max 10 µM, 7x7, partner max 1 µM) | 0.0325 | -0.0247 | 0.0353 | -0.0345 | -0.0237 | -0.0483 | 0.0157 | 0.0005 | -0.0106 | 0.0161 | -0.0219 | -0.0004 | -0.038 | -0.0378 | -0.0019 | -0.0555 | -0.0158 | -0.0529 | 0.0564 | -0.0448 |
| COc1nnc2ccc(N3CCC(c4ccc(OCCN5CCN(C)C(=O)[C@H]5C)cc4)CC3)nn12 [AZD5153] + CCN(CCO)CCCOc1ccc2c(Nc3cc(CC(=O)Nc4cccc(F)c4)[nH]n3)ncnc2c1 [AZD2811] (first compound max 1 µM, 7x7, partner max 1 µM) | 0.0175 | -0.0233 | -0.0201 | -0.0214 | -0.0236 | -0.127 | 0.0305 | -0.0295 | -0.0387 | -0.0016 | 0.0228 | -0.0088 | 0.004 | -0.0173 | 0.021 | -0.0153 | -0.0217 | 0.0201 | 0.0068 | -0.0113 |
| NC1(C(=O)N[C@@H](CCO)c2ccc(Cl)cc2)CCN(c2ncnc3[nH]ccc23)CC1 [Capivasertib] + CC(C)n1c(=O)n(C)c2cnc3cc(F)c(-c4ccc(OCCCN5CCCCC5)nc4)cc3c21 [AZD1390] (first compound max 10 µM, 7x7, partner max 0.3 µM) | 0.0083 | -0.0267 | -0.0509 | -0.0625 | -0.0711 | -0.0886 | -0.047 | -0.0885 | -0.13 | -0.025 | -0.0273 | -0.049 | -0.0404 | -0.0538 | -0.0364 | -0.0597 | -0.0261 | -0.0802 | -0.079 | -0.0118 |
| COc1nnc2ccc(N3CCC(c4ccc(OCCN5CCN(C)C(=O)[C@H]5C)cc4)CC3)nn12 [AZD5153] + C=CCn1c(=O)c2cnc(Nc3ccc(N4CCN(C)CC4)cc3)nc2n1-c1cccc(C(C)(C)O)n1 [AZD1775] (first compound max 1 µM, partner max 1 µM) | 0.0269 | -0.0334 | 0.0168 | -0.0783 | -0.0322 | -0.0481 | -0.0038 | -0.0523 | -0.0939 | -0.0144 | 0.0137 | -0.0572 | 0.0305 | -0.0221 | 0.0035 | -0.0328 | -0.0321 | 0.024 | -0.037 | -0.0054 |
| COc1cccc(OCCCN)c1-c1cc(Nc2cnc(C#N)cn2)n[nH]1 [Prexasertib] + C=CCn1c(=O)c2cnc(Nc3ccc(N4CCN(C)CC4)cc3)nc2n1-c1cccc(C(C)(C)O)n1 [AZD1775] (first compound max 1 µM, partner max 1 µM) | 0.0883 | -0.0017 | 0.0294 | 0.165 | -0.0383 | 0.0945 | 0.0561 | 0.155 | -0.0284 | 0.0991 | 0.0632 | 0.0924 | 0.0428 | 0.138 | 0.0677 | 0.0877 | 0.0163 | 0.0613 | 0.155 | 0.032 |
| C=CCn1c(=O)c2cnc(Nc3ccc(N4CCN(C)CC4)cc3)nc2n1-c1cccc(C(C)(C)O)n1 [AZD1775] + C1CN(CCC1(C(=O)N[C@@H](CCO)C2=CC=C(C=C2)Cl)N)C3=NC=NC4=C3C=CN4 [Capivasertib] (first compound max 3 µM, partner max 3 µM) | -0.007 | -0.0551 | 0.004 | 0.0064 | -0.0427 | -0.0197 | 0.185 | 0.0361 | -0.0011 | -0.0494 | -0.0278 | -0.0101 | -0.0367 | -0.0203 | -0.0387 | 0.0248 | -0.0475 | -0.0242 | -0.0481 | 0.0069 |
| CN(C)CCCOc1ccc(-c2ccc3ncc4c(c3c2)n(C2CCOCC2)c(=O)n4C)cn1 [AZD0156] + C[C@@H]1COCCN1C2=NC(=NC(=C2)C3(CC3)[S@](=N)(=O)C)C4=C5C=CNC5=NC=C4 [AZD6738] (first compound max 1 µM, 7x7, partner max 10 µM) | -0.0249 | -0.0145 | 0.0062 | -0.0396 | -0.0718 | 0.0433 | 0.1 | -0.0114 | 0.0156 | 0.0094 | -0.0189 | 0.0799 | -0.0468 | -0.0541 | 0.0593 | 0.0145 | 0.0253 | 0.0019 | -0.0074 | 0.0042 |
